{
  "source": "ChEMBL document CHEMBL3872207",
  "about": "“Aromatic heterocyclic esters of podophyllotoxin exert anti-MDR activity in human leukemia K562/ADR cells via ROS/MAPK signaling pathways” (Eur J Med Chem, 2016)",
  "key": {"K562/Adr [1]": {"system": "K562/Adr", "test": "Induction of apoptosis in human K562/ADR cells assessed as ratio of cleaved PARP to beta-actin level at 0.1 uM measured after 48 hrs by Western blot analysis (reference value: 0.04)", "format": "functional"}, "K562/Adr [2]": {"system": "K562/Adr", "test": "Induction of apoptosis in human K562/ADR cells assessed as late apoptotic cells at 0.1 uM pretreated with ROS scavenger NAC for 2 hrs followed by compound addition after 48 hrs by Annexin V-APC/7-AAD staining based flow cytometry (reference value: 1.69%)", "format": "functional"}, "K562/Adr [3]": {"system": "K562/Adr", "test": "Induction of apoptosis in human K562/ADR cells assessed as ratio of cleaved PARP to beta-actin level at 0.1 uM pretreated with MAPK inhibitor U0126 for 1 hr followed by compound addition measured after 48 hrs by Western blot analysis (reference value: 0.04)", "format": "functional"}, "K562/Adr [4]": {"system": "K562/Adr", "test": "Induction of apoptosis in human K562/ADR cells assessed as viable cells at 0.1 uM pretreated with MAPK inhibitor SB203580 for 1 hr followed by compound addition after 48 hrs by Annexin V-APC/7-AAD staining based flow cytometry (reference value: 95.31%)", "format": "functional", "conditions": "read-out: Activity"}, "K562/Adr [5]": {"system": "K562/Adr", "test": "Induction of apoptosis in human K562/ADR cells assessed as ratio of cleaved caspase-9 to beta-actin level at 0.1 uM pretreated with ROS scavenger NAC for 2 hrs followed by compound addition measured after 48 hrs by Western blot analysis (reference value: 0.05)", "format": "functional"}, "K562/Adr [6]": {"system": "K562/Adr", "test": "Induction of apoptosis in human K562/ADR cells assessed as ratio of cleaved caspase-8 to beta-actin level at 0.1 uM pretreated with ROS scavenger NAC for 2 hrs followed by compound addition measured after 48 hrs by Western blot analysis (reference value: 0.07)", "format": "functional"}, "[7]": {"molecular_target": "T1, MAP kinase p38 (Homo sapiens) (UniProt O15264+Q15759+Q16539+P53778)", "test": "Induction of P38 phosphorylation in human K562/ADR cells assessed as ratio of phosphorylated p38 to beta-actin level at 0.1 uM pretreated with ROS scavenger NAC for 2 hrs followed by compound addition after 48 hrs by Western blotting method (reference value: 0.25)", "format": "cell-based"}, "K562/Adr [8]": {"system": "K562/Adr", "test": "Induction of apoptosis in human K562/ADR cells assessed as necrotic cells at 0.1 uM after 48 hrs by Annexin V-APC/7-AAD staining based flow cytometry (reference value: 0.26%)", "format": "functional"}, "[9]": {"test": "Downregulation of P-gp expression in human K562/ADR cells assessed as ratio of P-gp to beta-actin level at 0.1 uM pretreated with ROS scavenger NAC for 2 hrs followed by compound addition measured after 48 hrs by Western blot analysis (reference value: 0.63)", "format": "functional, cell-based"}, "K562/Adr [10]": {"system": "K562/Adr", "test": "Induction of apoptosis in human K562/ADR cells assessed as ratio of cleaved caspase-8 to beta-actin level at 0.1 uM pretreated with MAPK inhibitor SP600125 for 1 hr followed by compound addition measured after 48 hrs by Western blot analysis (reference value: 0.07)", "format": "functional"}, "K562/Adr [11]": {"system": "K562/Adr", "test": "Induction of apoptosis in human K562/ADR cells assessed as viable cells at 0.1 uM after 48 hrs by Annexin V-APC/7-AAD staining based flow cytometry (reference value: 95.31%)", "format": "functional", "conditions": "read-out: Activity"}, "[12]": {"test": "Downregulation of CyclinA expression in human K562/ADR cells assessed as ratio of CyclinA to beta-actin level at 0.1 uM pretreated with MAPK inhibitor U0126 for 1 hr followed by compound addition measured after 48 hrs by Western blot analysis (reference value: 0.64)", "format": "functional, cell-based"}, "K562/Adr [13]": {"system": "K562/Adr", "test": "Induction of apoptosis in human K562/ADR cells assessed as ratio of cleaved caspase-8 to beta-actin level at 0.1 uM measured after 48 hrs by Western blot analysis (reference value: 0.07)", "format": "functional"}, "K562/Adr [14]": {"system": "K562/Adr", "test": "Induction of apoptosis in human K562/ADR cells assessed as early apoptotic cells at 0.1 uM pretreated with MAPK inhibitor U0126 for 1 hr followed by compound addition after 48 hrs by Annexin V-APC/7-AAD staining based flow cytometry (reference value: 2.74%)", "format": "functional", "design": "scale not given: the % may be the effect or the level left"}, "[15]": {"test": "Potency index, ratio of doxorubicin IC50 to compound IC50 for antiproliferative activity against human K562/ADR cells", "format": "functional"}, "K562/Adr [16]": {"system": "K562/Adr", "test": "Induction of intracellular ROS accumulation in human K562/ADR cells assessed as fluorescence intensity at 0.1 uM treated 2 hrs post ROS scavenger NAC addition measured after 24 hrs by DCFH-DA probe based flow cytometry relative to vehicle-treated control", "format": "functional"}, "[17]": {"test": "Downregulation of CDK2 expression in human K562/ADR cells assessed as ratio of CDK2 to beta-actin level at 0.1 uM pretreated with MAPK inhibitor SB203580 for 1 hr followed by compound addition measured after 48 hrs by Western blot analysis (reference value: 0.65)", "format": "functional, cell-based"}, "[18]": {"molecular_target": "T1, MAP kinase p38 (Homo sapiens)", "test": "Induction of P38 phosphorylation in human K562/ADR cells assessed as ratio of phosphorylated p38 to beta-actin level at 0.1 uM pretreated with MAPK inhibitor U0126 for 1 hr followed by compound addition after 48 hrs by Western blotting method (reference value: 0.25)", "format": "cell-based"}, "K562/Adr [19]": {"system": "K562/Adr", "test": "Induction of apoptosis in human K562/ADR cells assessed as ratio of cleaved caspase-3 to beta-actin level at 0.1 uM pretreated with MAPK inhibitor SP600125 for 1 hr followed by compound addition measured after 48 hrs by Western blot analysis (reference value: 0.06)", "format": "functional"}, "[20]": {"test": "Downregulation of CyclinB1 expression in human K562/ADR cells assessed as ratio of CyclinB1 to beta-actin level at 0.1 uM pretreated with MAPK inhibitor U0126 for 1 hr followed by compound addition measured after 48 hrs by Western blot analysis (reference value: 0.77)", "format": "functional, cell-based"}, "[21]": {"test": "Downregulation of P-gp expression in human K562/ADR cells assessed as ratio of P-gp to beta-actin level at 0.1 uM pretreated with MAPK inhibitor U0126 for 1 hr followed by compound addition measured after 48 hrs by Western blot analysis (reference value: 0.63)", "format": "functional, cell-based"}, "K562/Adr [22]": {"system": "K562/Adr", "test": "Induction of apoptosis in human K562/ADR cells assessed as necrotic cells at 0.1 uM pretreated with ROS scavenger NAC for 2 hrs followed by compound addition after 48 hrs by Annexin V-APC/7-AAD staining based flow cytometry (reference value: 0.26%)", "format": "functional"}, "[23]": {"test": "Downregulation of CDK1 expression in human K562/ADR cells assessed as ratio of CDK1 to beta-actin level at 0.1 uM pretreated with MAPK inhibitor SB203580 for 1 hr followed by compound addition measured after 48 hrs by Western blot analysis (reference value: 0.53)", "format": "functional, cell-based"}, "[24]": {"test": "Downregulation of CyclinB1 expression in human K562/ADR cells assessed as ratio of CyclinB1 to beta-actin level at 0.1 uM pretreated with ROS scavenger NAC for 2 hrs followed by compound addition measured after 48 hrs by Western blot analysis (reference value: 0.77)", "format": "functional, cell-based"}, "[25]": {"test": "Downregulation of CDK2 expression in human K562/ADR cells assessed as ratio of CDK2 to beta-actin level at 0.1 uM pretreated with MAPK inhibitor U0126 for 1 hr followed by compound addition measured after 48 hrs by Western blot analysis (reference value: 0.65)", "format": "functional, cell-based"}},
  "data": [
    {"smiles": "COc1cc([C@@H]2c3cc4c(cc3[C@H](OC(=O)c3ccco3)[C@H]3COC(=O)[C@H]23)OCO4)cc(OC)c1OC", "values": [
      {"measurement": "Ratio", "setting": "K562/Adr [1]", "value": 0.84},
      {"measurement": "Activity", "setting": "K562/Adr [2]", "value": 24.34, "unit": "%"},
      {"measurement": "Ratio", "setting": "K562/Adr [3]", "value": 0.43},
      {"measurement": "viability at 0.1 µM", "setting": "K562/Adr [4]", "value": 59.4, "unit": "%"},
      {"measurement": "Ratio", "setting": "K562/Adr [5]", "value": 0.1},
      {"measurement": "Ratio", "setting": "K562/Adr [6]", "value": 0.15},
      {"measurement": "Ratio", "setting": "[7]", "value": 0.29},
      {"measurement": "Activity", "setting": "K562/Adr [8]", "value": 5.49, "unit": "%"},
      {"measurement": "Ratio", "setting": "[9]", "value": 0.66},
      {"measurement": "Ratio", "setting": "K562/Adr [10]", "value": 0.47},
      {"measurement": "viability at 0.1 µM", "setting": "K562/Adr [11]", "value": 46.1, "unit": "%"},
      {"measurement": "Ratio", "setting": "[12]", "value": 0.41},
      {"measurement": "Ratio", "setting": "K562/Adr [13]", "value": 0.77},
      {"measurement": "Activity", "setting": "K562/Adr [14]", "value": 8.73, "unit": "%"},
      {"measurement": "Ratio IC50", "setting": "[15]", "value": 586.843},
      {"measurement": "fold change (FC)", "setting": "K562/Adr [16]", "value": 0.49},
      {"measurement": "Ratio", "setting": "[17]", "value": 0.24},
      {"measurement": "Ratio", "setting": "[18]", "value": 0.21},
      {"measurement": "Ratio", "setting": "K562/Adr [19]", "value": 0.51},
      {"measurement": "Ratio", "setting": "[20]", "value": 0.51},
      {"measurement": "Ratio", "setting": "[21]", "value": 0.35},
      {"measurement": "Activity", "setting": "K562/Adr [22]", "value": 2.14, "unit": "%"},
      {"measurement": "Ratio", "setting": "[23]", "value": 0.2},
      {"measurement": "Ratio", "setting": "[24]", "value": 0.66},
      {"measurement": "Ratio", "setting": "[25]", "value": 0.26}
    ]}
  ]
}
